{
  "source": "patent US11566047B2",
  "about": "“Peptide or pharmaceutically acceptable salt thereof, or prodrug thereof” (TOKYO UNIVERSITY OF PHARMACY & LIFE SCIENCES, priority 2016, dated 2023)",
  "note": "Square brackets hold non-standard residues; d marks the D form. Peptide text beside a SMILES is read from it. * marks the point of attachment. 2Nal = N[C@@H](Cc1ccc2ccccc2c1)C(=O)O; Chg = N[C@H](C(=O)O)C1CCCCC1; X1 = COCCOCCOCCOCCC(=O)*; Ahx = NCCCCCC(=O)O",
  "data": [
    {"target": "T1, myostatin (Homo sapiens, UniProt O14793)", "T1 sequence (O14793 267-375)": "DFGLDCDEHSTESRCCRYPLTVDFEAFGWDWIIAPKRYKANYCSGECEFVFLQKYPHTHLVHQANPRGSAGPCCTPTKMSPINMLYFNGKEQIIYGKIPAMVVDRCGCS", "assay": "cell-based", "details": "HEK293, read-out: luciferase activity (relative; myostatin without test sample = 100%)", "description": "(§1) Human embryo kidney cell HEK293 cells were cultured in a 5% (v/v) CO2 incubator set to 37° C. using DMEM (NACALAI TESQUE, INC.) including a 10% (v/v) fetal bovine serum (FBS) added with a 1% (v/v) non-essential amino acid (Wako Pure Chemical Corporation).\n(§2) (2) In Vitro Reporter Assay\n(§3) HEK293 cells were seeded on a D-Lys-corted 96-well transparent plate (Thermo Fisher Scientific Inc.) in an amount of 2.0×10^4 cells (100 μL DMEM+10% (v/v) FBS) per well and were cultured for 24 hours.\n(§4) The cells were cultured at 37° C. for 24 hours, and after the cell culture solution was replaced with serum-free DMEM, the cells were cultured for 8 hours. Incidentally, pGL4.48 [luc2P/SBE/Hygro] includes firefly luciferase reporter gene luc2P under Smad binding region (SBE) control, and when a signaling pathway by the myostatin is activated, intracellular Smad forms a complex, and the complex is bonded to SBE to promote transcription of luc2P.\n(§5) The peptide as a test sample was suspended as a stock solution using DMSO to become 10 mM and stored at −30° C. Before 1 hour from addition to the culture medium, the peptide and a myostatin (Merck Millipore Corp.) were suspended with serum-free DMEM and left to stand still at room temperature (25° C.) for 20 minutes. Subsequently, a peptide with an arbitrary final concentration (0.3 to […]) and 8 ng/mL of myostatin were added to the culture medium, and then culturing was performed for 4 hours. After culturing for 4 hours, the culture solution was removed by an aspirator and the cells were washed with 1×PBS. Thereafter, Passive Lysis buffer (Promega Corporation) was added in an amount of 50 μL per well to dissolve the cells. The dissolving solution was subjected to centrifugal separation at 4500 rpm for 6 minutes under the condition of 4° C. After 20 μL of supernatant subjected to centrifugal separation was transferred to a white 96-well plate (Costar), 50 μL of Luciferase Assay Reagent (Promega Corporation) was then added, emission was detected by Luminoskan Ascent (Thermo Fisher Scientific Inc.), and a firefly luciferase activity was measured. Further, after 50 μL of Stop & Glo Buffer (Promega Corporation) was added, emission was detected by Luminoskan Ascent, and a Renilla luciferase activity was measured to be regarded as an internal control.", "units": {"remaining activity at 0.3 µM": "%"}, "values": [
      {"molecule": "CC[C@H](C)[C@H](NC(=O)[C@H](CCC(N)=O)NC(=O)[C@@H](NC(=O)[C@H](CCCCN)NC(=O)[C@@H](NC(=O)[C@@H](Cc1c[nH]c2ccccc12)NC(=O)[C@H](CCCNC(=N)N)NC(=O)[C@@H](NC(=O)[C@H](Cc1ccc(O)cc1)NC(=O)[C@H](Cc1c[nH]c2ccccc12)NC(=O)CCCCCNC(=O)CCOCCOCCOCCOC)[C@@H](C)CC)[C@@H](C)CC)C1CCCCC1)C(=O)N[C@@H](Cc1c[nH]c2ccccc12)C(=O)N[C@@H](CO)C(=O)N[C@@H](CCCCN)C(=O)N[C@H](C(=O)N[C@@H](CCCNC(=N)N)C(=O)N[C@@H](CC(C)C)C(N)=O)C1CCCCC1", "note": "[PDM-86, R^111-WYIRwIK-Chg-QIWSK-Chg-RL-NH2] ({X1-Ahx}-WYIR[dW]IK[Chg]QIWSK[Chg]RL-NH2)", "remaining activity at 0.3 µM": "≤ 60"},
      {"molecule": "CC[C@H](C)[C@H](NC(=O)[C@H](CCC(N)=O)NC(=O)[C@@H](NC(=O)[C@H](CCCCN)NC(=O)[C@@H](NC(=O)[C@@H](Cc1c[nH]c2ccccc12)NC(=O)[C@H](CCCNC(=N)N)NC(=O)[C@@H](NC(=O)[C@H](Cc1ccc(O)cc1)NC(=O)[C@@H](N)Cc1c[nH]c2ccccc12)[C@@H](C)CC)[C@@H](C)CC)C1CCCCC1)C(=O)N[C@@H](Cc1c[nH]c2ccccc12)C(=O)N[C@@H](CO)C(=O)N[C@@H](CCCCN)C(=O)N[C@H](C(=O)N[C@@H](CCCNC(=N)N)C(=O)N[C@@H](CC(C)C)C(N)=O)C1CCCCC1", "note": "[nPDM-86, WYIRwIK-Chg-QIWSK-Chg-RL-NH2] (H-WYIR[dW]IK[Chg]QIWSK[Chg]RL-NH2)", "remaining activity at 0.3 µM": "≤ 60"},
      {"molecule": "CC[C@H](C)[C@H](NC(=O)[C@H](CCC(N)=O)NC(=O)[C@@H](NC(=O)[C@H](CCCCN)NC(=O)[C@@H](NC(=O)[C@H](Cc1c[nH]c2ccccc12)NC(=O)[C@H](CCCNC(=N)N)NC(=O)[C@@H](NC(=O)[C@H](Cc1ccc(O)cc1)NC(=O)[C@@H](N)Cc1c[nH]c2ccccc12)[C@@H](C)CC)[C@@H](C)CC)C1CCCCC1)C(=O)N[C@@H](Cc1c[nH]c2ccccc12)C(=O)N[C@@H](CO)C(=O)N[C@@H](CCCCN)C(=O)N[C@@H](CC(C)C)C(=O)N[C@@H](CCCNC(=N)N)C(=O)N[C@@H](CC(C)C)C(N)=O", "note": "[nPDM-64, WYIRWIK-Chg-QIWSKLRL-NH2] (H-WYIRWIK[Chg]QIWSKLRL-NH2)", "remaining activity at 0.3 µM": "≤ 60"},
      {"molecule": "CC[C@H](C)[C@H](NC(=O)[C@H](CCC(N)=O)NC(=O)[C@@H](NC(=O)[C@H](CCCCN)NC(=O)[C@@H](NC(=O)[C@H](Cc1ccc2ccccc2c1)NC(=O)[C@H](CCCNC(=N)N)NC(=O)[C@@H](NC(=O)[C@H](Cc1ccc(O)cc1)NC(=O)[C@@H](N)Cc1ccc(O)cc1)[C@@H](C)CC)[C@@H](C)CC)[C@@H](C)CC)C(=O)N[C@@H](Cc1c[nH]c2ccccc12)C(=O)N[C@@H](CO)C(=O)N[C@@H](CCCCN)C(=O)N[C@@H](CC(C)C)C(=O)N[C@@H](CCCNC(=N)N)C(=O)N[C@@H](CC(C)C)C(N)=O", "note": "[nPDM-69, YYIR-Naa-IKIQIWSKLRL-NH2] (H-YYIR[2Nal]IKIQIWSKLRL-NH2)", "remaining activity at 0.3 µM": "≤ 60"},
      {"molecule": "CC[C@H](C)[C@H](NC(=O)[C@H](CCC(N)=O)NC(=O)[C@@H](NC(=O)[C@H](CCCCN)NC(=O)[C@@H](NC(=O)[C@H](Cc1c[nH]c2ccccc12)NC(=O)[C@H](CCCCN)NC(=O)[C@@H](NC(=O)[C@H](Cc1ccc(O)cc1)NC(=O)[C@@H](N)Cc1c[nH]c2ccccc12)[C@@H](C)CC)[C@@H](C)CC)[C@@H](C)CC)C(=O)N[C@@H](Cc1c[nH]c2ccccc12)C(=O)N[C@@H](CO)C(=O)N[C@@H](CCCCN)C(=O)N[C@@H](CC(C)C)C(=O)N[C@@H](CCCNC(=N)N)C(=O)N[C@@H](CC(C)C)C(N)=O", "note": "[nPDM-55/E31K, WYIKWIKIQIWSKLRL-NH2] (H-WYIKWIKIQIWSKLRL-NH2)", "remaining activity at 0.3 µM": "≤ 60"},
      {"molecule": "CC[C@H](C)[C@H](NC(=O)[C@H](CCC(N)=O)NC(=O)[C@@H](NC(=O)[C@H](CCCCN)NC(=O)[C@@H](NC(=O)[C@H](Cc1c[nH]c2ccccc12)NC(=O)[C@H](CCCNC(=N)N)NC(=O)[C@@H](NC(=O)[C@H](Cc1ccc(O)cc1)NC(=O)[C@@H](N)Cc1c[nH]c2ccccc12)[C@@H](C)CC)[C@@H](C)CC)C1CCCCC1)C(=O)N[C@@H](Cc1c[nH]c2ccccc12)C(=O)N[C@@H](CO)C(=O)N[C@@H](CCCCN)C(=O)N[C@H](C(=O)N[C@@H](CCCNC(=N)N)C(=O)N[C@@H](CC(C)C)C(N)=O)C1CCCCC1", "note": "[nPDM-66, WYIRWIK-Chg-QIWSK-Chg-RL-NH2] (H-WYIRWIK[Chg]QIWSK[Chg]RL-NH2)", "remaining activity at 0.3 µM": "≤ 60"}
    ]},
    {"target": "T1, myostatin", "assay": "cell-based", "details": "comparison of IC50 values", "description": "as §1, §2, §3, §4, §5", "values": [
      {"molecule": "CC[C@H](C)[C@H](NC(=O)[C@H](CCC(N)=O)NC(=O)[C@@H](NC(=O)[C@H](CCCCN)NC(=O)[C@@H](NC(=O)[C@@H](Cc1c[nH]c2ccccc12)NC(=O)[C@H](CCCNC(=N)N)NC(=O)[C@@H](NC(=O)[C@H](Cc1ccc(O)cc1)NC(=O)[C@@H](N)Cc1c[nH]c2ccccc12)[C@@H](C)CC)[C@@H](C)CC)C1CCCCC1)C(=O)N[C@@H](Cc1c[nH]c2ccccc12)C(=O)N[C@@H](CO)C(=O)N[C@@H](CCCCN)C(=O)N[C@H](C(=O)N[C@@H](CCCNC(=N)N)C(=O)N[C@@H](CC(C)C)C(N)=O)C1CCCCC1", "note": "[nPDM-86, WYIRwIK-Chg-QIWSK-Chg-RL-NH2] (H-WYIR[dW]IK[Chg]QIWSK[Chg]RL-NH2)", "inhibitory activity relative to 3d": "approximately two times higher inhibitory activity"}
    ]},
    {"target": "T1, myostatin", "assay": "cell-based", "details": "read-out: IC50 value, myostatin inhibitory activity; concentration range of 0.016 to 2 μM", "description": "as §1, §2, §3, §4, §5", "units": {"IC50": "nM"}, "values": [
      {"molecule": "CC[C@H](C)[C@H](NC(=O)[C@H](CCC(N)=O)NC(=O)[C@@H](NC(=O)[C@H](CCCCN)NC(=O)[C@@H](NC(=O)[C@@H](Cc1c[nH]c2ccccc12)NC(=O)[C@H](CCCNC(=N)N)NC(=O)[C@@H](NC(=O)[C@H](Cc1ccc(O)cc1)NC(=O)[C@@H](N)Cc1c[nH]c2ccccc12)[C@@H](C)CC)[C@@H](C)CC)C1CCCCC1)C(=O)N[C@@H](Cc1c[nH]c2ccccc12)C(=O)N[C@@H](CO)C(=O)N[C@@H](CCCCN)C(=O)N[C@H](C(=O)N[C@@H](CCCNC(=N)N)C(=O)N[C@@H](CC(C)C)C(N)=O)C1CCCCC1", "note": "[nPDM-86, WYIRwIK-Chg-QIWSK-Chg-RL-NH2] (H-WYIR[dW]IK[Chg]QIWSK[Chg]RL-NH2)", "IC50": 131}
    ]}
  ]
}
